Experimental data from patent publication US20260325519A1, “METHOD AND PHARMACEUTICAL COMPOSITION FOR USE IN THE TREATMENT OF FOCAL CORTICAL DYSPLASIA” (priority 2023, published 2026).

Assays:
[1] = test system: acute cortical slices from a patient with FCD; assay: Recurrent epileptiform discharges (LFP) in human acute slice from surgically resected FCD; type: cell-based; conditions: 5 μM UBP 310, 50 μM 4-AP and 5 μM gabazine
Method: Cortical slices from patients with drug-resistant epilepsy Acute and cultured slices at 350 μm thickness were prepared from surgical cortical resections from patient diagnosed with drug-resistant epilepsy (AP-HM, Hôpital de La Timone, Marseille, France; CHU Pellegrin, Bordeaux, France) as previously described (Le Duigou et al., 2018). At DIV 1, a subset of cultured slices were transduced with AAV9 with antigrik2 miRNA applied directly to slices (4E+10 per slice).
Prior to recordings, rat or human acute slices were transferred in oxygenated normal cerebrospinal fluid (ACSF) at room temperature (>1 hour). The ACSF contained (in mM, Sigma-Aldrich): 126 NaCl, 3.5 KCl, 1.2NaH2PO4, 26 NaHCO3, 1.3 MgCl2, 2.0 CaCl2 , and 10 glucose (pH 7.4). For electrophysiological recordings, cortical slices were individually transferred to a recording chamber maintained at 30-32 °C and continuously perfused (2-3 ml/min) with oxygenated (95% O2 and 5% CO2) ACSF containing either 5 μM gabazine, or 5 μM gabazine and 50 μM 4-AP in rats and human tissues, respectively. Spontaneous recurrent epileptiform discharges were recorded as local field potentials as previously described (Peret et al., 2014).
All statistical analyses were performed using Prism 6 (Graphpad). Normality of the data distributions was systematically tested using a Shapiro-Wilk test. […]

[2] = test system: acute cortical slices from a patient with FCD; assay: Field EPSP (fEPSP) evoked by electrical stimulation in human acute slice from surgically resected FCD; type: cell-based; conditions: 5 μM UBP 310
[3] = test system: neocortical acute slices from rats with FCDII; assay: Spontaneous recurrent epileptiform discharges (LFP) in acute neocortical slices from adult FCD rats; type: cell-based, rat (Wistar); conditions: 5 μM gabazine
Method: Our study takes advantage of a rat model of FCD developed in our laboratory (Pelorosso et al 2019) by in utero electroporation of a gain of function mutation of mTOR (MTOR c.6644C>T p.S2215F), that has been found in different FCD patients (Baldassari et al 2019). Rats were housed in cages with ad libitum food/water, controlled temperature (21-23 °C) and 12:12 h light-dark cycle (light period from 8 A.M. to 8 P.M.).
Plasmid electroporations were performed with either wild type (WT) or mutant mTOR expression vectors (pCAG-MTOR WT-IRES-GFP or pCAG-MTOR p.S2215F, respectively, 3.0 μg/μL each), or with non-recombinant vector (pCAG-IRES-GFP; 0.5 μg/μL). All constructs were generated by Genscript (Piscataway, NJ) as described before (Pelorosso et al 2019) and were checked by Sanger sequencing.
Timed pregnant Wistar rats (Janvier Labs, Le Genest-Saint-Isle, France) received buprenorphine at 0.03 mg/kg and were anesthetized with sevoflurane (4%) 30 min later. […]
Prior to recordings, rat or human acute slices were transferred in oxygenated normal cerebrospinal fluid (ACSF) at room temperature (>1 hour). […] Spontaneous recurrent epileptiform discharges were recorded as local field potentials as previously described (Peret et al., 2014). […]

[4] = acute cortical slices from a patient with FCD
[5] = human acute slice from resected FCD, in words

Cc1cn(C[C@H](N)C(=O)O)c(=O)n(Cc2ccsc2C(=O)O)c1=O [UBP 310]
reduction of the frequency of spontaneous recurrent epileptiform discharges [1, 4]: around 70%
reduction of the number of epileptiform discharges [1, 5]: strong reduction
reduction of the amplitude of evoked field EPSP (fEPSP) [2, 4]: approximately 50%
fEPSP evoked by electrical stimulation [2, 5]: strongly reduced
reduction in the number of epileptiform discharges ([3]; 5 μM UBP 310, bath application, acute neocortical slice from adult FCD rat, n=7 slices from 4 FCD rats, Wilcoxon p=0.0156): around 46%
reduction in the frequency of spontaneous recurrent epileptiform discharges ([3]; 5 μM UBP 310, neocortical acute slices from rats with FCDII): around 46%
